Measurements from patent US20150283093A1, “NANOENCAPSULATION OF CURCUMINOID METABOLITES - PROCESS, COMPOSITION AND APPLICATIONS THEREOF” (priority 2014, published 2015).

Experiment: Superoxide radical scavenging activity (alkaline DMSO / NBT method)
Experimental: The scavenging activity towards the superoxide radical (O2^−) was measured as the inhibition of superoxide radical (O2^−) generation. The method was performed by using alkaline DMSO method. Potassium superoxide and dry DMSO were allowed to stand in contact for 24 h and the solution was filtered immediately before use. […] Ascorbic acid was used as standard. The experiment was repeated in triplicate and the percentage scavenging was calculated by using the formula:
Inhibition (%)=[(Control−Test)/Control]×100

Structure (SMILES): Cc1c(C)c2c(c(C)c1O)CCC(C)(C(=O)O)O2 (centres unmarked) [TROLOX]
- scavenging of superoxide radical (O2−), concentration dependence: concentration dependant scavenging
- scavenging potential of superoxide radical (O2−) (at 100 μM concentration): 47.80%
